According to ChEMBL document CHEMBL1151315, “Baicalein, an alpha-glucosidase inhibitor from Scutellaria baicalensis” (J Nat Prod, 1998):
Active and inactive are the calls of the source. No cut-off for these calls is given here.

Experiments:
[1] = molecular target: Sucrase-isomaltase, intestinal (Rattus norvegicus) (UniProt P23739); details: Caco-2, 21 uM
Description: Inhibition of rat intestinal sucrase expressed in human Caco-2 cells at 21 uM

[2] = molecular target: T1, Sucrase-isomaltase, intestinal (Homo sapiens, UniProt P14410); experiment: Inhibition of human intestinal sucrase in human Caco-2 cell membrane at 25 uM
Target sequence in this assay (P14410 2-1007 limits assumed): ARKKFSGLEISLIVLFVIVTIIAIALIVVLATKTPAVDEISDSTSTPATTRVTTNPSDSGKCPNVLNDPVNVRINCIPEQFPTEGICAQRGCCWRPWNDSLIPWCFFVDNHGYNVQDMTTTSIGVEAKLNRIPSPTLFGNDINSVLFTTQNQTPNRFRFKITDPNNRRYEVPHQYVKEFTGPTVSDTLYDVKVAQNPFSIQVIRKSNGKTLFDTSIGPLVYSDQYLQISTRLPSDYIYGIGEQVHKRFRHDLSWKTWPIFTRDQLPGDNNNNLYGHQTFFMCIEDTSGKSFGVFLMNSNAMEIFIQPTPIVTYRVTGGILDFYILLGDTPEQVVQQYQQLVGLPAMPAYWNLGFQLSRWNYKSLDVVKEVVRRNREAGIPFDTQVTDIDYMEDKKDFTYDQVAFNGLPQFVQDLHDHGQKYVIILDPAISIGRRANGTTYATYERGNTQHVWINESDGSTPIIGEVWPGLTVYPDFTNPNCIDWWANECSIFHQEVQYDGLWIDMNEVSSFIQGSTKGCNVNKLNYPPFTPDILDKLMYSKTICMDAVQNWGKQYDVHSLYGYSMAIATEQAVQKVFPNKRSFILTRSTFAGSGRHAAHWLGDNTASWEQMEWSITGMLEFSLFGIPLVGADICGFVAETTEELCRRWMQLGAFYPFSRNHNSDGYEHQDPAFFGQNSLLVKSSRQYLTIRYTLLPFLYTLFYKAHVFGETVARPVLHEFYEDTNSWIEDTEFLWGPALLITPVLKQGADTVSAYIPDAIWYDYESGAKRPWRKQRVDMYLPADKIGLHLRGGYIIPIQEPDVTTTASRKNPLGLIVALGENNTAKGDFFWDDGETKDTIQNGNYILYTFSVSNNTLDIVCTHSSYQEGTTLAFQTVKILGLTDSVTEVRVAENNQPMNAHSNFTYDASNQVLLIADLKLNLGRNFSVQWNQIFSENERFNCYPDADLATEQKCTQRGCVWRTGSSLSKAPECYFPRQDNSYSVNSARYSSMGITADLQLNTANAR
Target sequence in this assay (P14410 1008-1827 limits assumed): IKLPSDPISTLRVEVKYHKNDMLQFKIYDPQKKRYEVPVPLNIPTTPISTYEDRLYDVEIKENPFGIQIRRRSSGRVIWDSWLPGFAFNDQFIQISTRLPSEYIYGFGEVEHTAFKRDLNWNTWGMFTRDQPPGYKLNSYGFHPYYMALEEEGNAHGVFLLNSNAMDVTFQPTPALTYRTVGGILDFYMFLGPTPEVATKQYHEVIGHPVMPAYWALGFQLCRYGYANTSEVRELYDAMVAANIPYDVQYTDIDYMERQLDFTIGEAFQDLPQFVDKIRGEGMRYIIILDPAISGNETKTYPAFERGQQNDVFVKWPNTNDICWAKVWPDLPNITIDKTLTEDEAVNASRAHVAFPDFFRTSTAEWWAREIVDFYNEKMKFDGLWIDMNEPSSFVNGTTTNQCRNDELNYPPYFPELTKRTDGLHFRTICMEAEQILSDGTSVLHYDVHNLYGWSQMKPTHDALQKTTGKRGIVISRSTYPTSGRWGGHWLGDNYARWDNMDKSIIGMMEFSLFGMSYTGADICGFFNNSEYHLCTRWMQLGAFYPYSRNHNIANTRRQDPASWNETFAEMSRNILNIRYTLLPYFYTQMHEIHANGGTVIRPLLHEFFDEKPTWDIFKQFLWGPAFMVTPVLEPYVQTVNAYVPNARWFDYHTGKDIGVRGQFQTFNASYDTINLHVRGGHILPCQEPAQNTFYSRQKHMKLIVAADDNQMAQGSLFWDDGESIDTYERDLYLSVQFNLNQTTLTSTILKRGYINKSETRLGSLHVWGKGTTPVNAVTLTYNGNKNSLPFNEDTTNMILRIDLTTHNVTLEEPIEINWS

[3] = molecular target: Sucrase-isomaltase, intestinal (Rattus norvegicus, UniProt P23739); experiment: Inhibition of rat intestinal sucrase
[4] = molecular target: T1, Sucrase-isomaltase, intestinal; experiment: Inhibition of human intestinal sucrase in human Caco-2 cell membrane; format: cell-based
Target sequence in this assay (P14410 2-1007 limits assumed): as the sequence (P14410 2-1007 limits assumed) above
Target sequence in this assay (P14410 1008-1827 limits assumed): as the sequence (P14410 1008-1827 limits assumed) above

[5] = molecular target: T1, Sucrase-isomaltase, intestinal; experiment: Inhibition of human intestinal sucrase

Chain of Sucrase-isomaltase, intestinal (Rattus norvegicus) (P23739 1-1013 limits assumed): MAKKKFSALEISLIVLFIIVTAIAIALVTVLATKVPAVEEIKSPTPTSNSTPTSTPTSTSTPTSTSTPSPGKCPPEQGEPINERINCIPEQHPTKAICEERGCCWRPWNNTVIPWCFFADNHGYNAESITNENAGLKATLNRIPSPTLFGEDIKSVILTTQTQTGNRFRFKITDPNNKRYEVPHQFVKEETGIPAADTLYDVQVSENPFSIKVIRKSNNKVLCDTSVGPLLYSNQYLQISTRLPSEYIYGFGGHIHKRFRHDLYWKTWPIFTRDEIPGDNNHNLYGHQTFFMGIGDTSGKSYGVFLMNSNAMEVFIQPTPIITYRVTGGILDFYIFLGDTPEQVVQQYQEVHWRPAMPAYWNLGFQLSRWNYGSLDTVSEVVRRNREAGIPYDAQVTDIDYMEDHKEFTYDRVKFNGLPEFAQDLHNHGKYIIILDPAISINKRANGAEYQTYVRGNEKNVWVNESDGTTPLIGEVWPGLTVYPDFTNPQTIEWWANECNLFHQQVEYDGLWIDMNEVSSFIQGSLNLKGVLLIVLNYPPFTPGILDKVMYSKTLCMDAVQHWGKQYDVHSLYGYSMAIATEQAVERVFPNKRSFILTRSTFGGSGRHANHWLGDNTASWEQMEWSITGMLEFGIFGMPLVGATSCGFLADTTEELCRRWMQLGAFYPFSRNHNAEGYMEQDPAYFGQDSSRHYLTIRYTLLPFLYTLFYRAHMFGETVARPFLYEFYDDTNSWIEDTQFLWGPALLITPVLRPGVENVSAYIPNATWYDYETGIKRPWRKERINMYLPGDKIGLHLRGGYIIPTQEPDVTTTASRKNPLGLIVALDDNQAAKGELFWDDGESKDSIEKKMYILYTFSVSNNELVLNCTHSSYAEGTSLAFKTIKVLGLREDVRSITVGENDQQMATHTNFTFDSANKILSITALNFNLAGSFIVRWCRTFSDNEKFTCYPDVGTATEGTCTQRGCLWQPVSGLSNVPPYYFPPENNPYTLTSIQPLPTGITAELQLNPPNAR
Chain of Sucrase-isomaltase, intestinal (Rattus norvegicus) (P23739 1014-1841 limits assumed): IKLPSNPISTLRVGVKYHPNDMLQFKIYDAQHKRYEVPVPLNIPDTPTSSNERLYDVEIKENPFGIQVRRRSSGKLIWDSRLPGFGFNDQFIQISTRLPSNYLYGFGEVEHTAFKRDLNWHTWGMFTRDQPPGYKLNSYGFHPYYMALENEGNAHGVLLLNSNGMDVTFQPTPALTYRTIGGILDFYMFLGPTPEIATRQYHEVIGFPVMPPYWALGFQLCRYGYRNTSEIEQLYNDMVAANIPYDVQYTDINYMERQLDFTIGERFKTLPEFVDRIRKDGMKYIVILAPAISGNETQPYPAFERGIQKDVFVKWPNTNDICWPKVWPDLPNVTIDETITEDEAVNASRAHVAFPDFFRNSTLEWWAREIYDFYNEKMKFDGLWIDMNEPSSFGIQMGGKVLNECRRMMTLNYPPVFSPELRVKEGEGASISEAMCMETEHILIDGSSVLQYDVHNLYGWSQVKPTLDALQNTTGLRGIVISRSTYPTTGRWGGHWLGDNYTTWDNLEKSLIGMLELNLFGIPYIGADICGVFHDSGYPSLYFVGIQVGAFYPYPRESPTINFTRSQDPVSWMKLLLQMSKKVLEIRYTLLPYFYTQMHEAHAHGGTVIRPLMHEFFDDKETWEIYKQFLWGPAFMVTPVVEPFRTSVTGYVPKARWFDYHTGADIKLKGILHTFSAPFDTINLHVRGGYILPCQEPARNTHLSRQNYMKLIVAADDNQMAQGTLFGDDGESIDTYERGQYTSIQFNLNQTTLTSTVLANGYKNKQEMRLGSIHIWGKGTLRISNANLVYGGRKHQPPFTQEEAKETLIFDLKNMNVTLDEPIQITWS
Chain of Sucrase-isomaltase, intestinal (Rattus norvegicus, UniProt P23739) (P23739 1-1013 limits assumed): as the sequence (P23739 1-1013 limits assumed) above
Chain of Sucrase-isomaltase, intestinal (Rattus norvegicus, UniProt P23739) (P23739 1014-1841 limits assumed): as the sequence (P23739 1014-1841 limits assumed) above

inhibition [1] [%]	inhibition [2] [%]	IC50 [3] [µM]	IC50 [4] [µM]	Activity [5]	SMILES
100	95	–	–	–	OC[C@H]1NC[C@H](O)[C@@H](O)[C@@H]1O
–	–	260	35	Active	O=c1cc(-c2ccccc2)oc2cc(O)c(O)c(O)c12 [BAICALEIN]
